Test [1] deals with Myeloid Cell Leukemia 1 (Mcl-1) (Homo sapiens, UniProt Q07820). The test is described as follows: Terbium labeled Mcl-1 HTRF binding assay with Cy5-labeled BIM BH3 peptide. The settings on record: Ki=IC50/(1+[L]/Kd), [L]=8 nM, Kd=10 nM, 60 min incubation at room temperature, read-out: Tb-MCL1 Ki. The method, then: Terbium labeled Myeloid Cell Leukemia 1 (Mcl-1) homogeneous time-resolved fluorescence (HTRF) binding assay utilizing the BIM BH3 peptide (H2N-(C/Cy5Mal) WIAQELRRIGDEFN-OH) as the binding partner for Mcl-1.
This assay evaluated inhibition of the BH3 domain: Mcl-1 interaction by measuring the displacement of Cy5-labeled BIM BH3 peptide (H2N—(C/Cy5Mal) WIAQELRRIGDEFN-OH) in the HTRF assay format.
The following assay and stock buffers were prepared for use in the assay: (a) Stock buffer: 10 mM Tris-HCl, pH=7.5+150 mM NaCl, filtered, sterilized, and stored at 4° C.; and (b) 1×assay buffer, where the following ingredients were added fresh to stock buffer: 2 mM dithiothreitol (DTT), 0.0025% Tween-20, 0.1 mg/mL bovine serum albumin (BSA). The 1×Tb-Mcl-1+Cy5 Bim peptide solution was prepared by diluting the protein stock solution using the 1×assay buffer (b) to 25 pM Tb-Mcl-1 and 8 nM Cy5 Bim peptide.
Using the Acoustic ECHO, 100 nL of 100×test compound(s) were dispensed into individual wells of a white 384-well Perkin Elmer Proxiplate, for a final compound concentration of 1× and final DMSO concentration of 1%. Inhibitor control and neutral control (NC, 100 nL of 100% DMSO) were stamped into columns 23 and 24 of assay plate, respectively. Into each well of the plate was then dispensed 10 μL of the 1×Tb-Mcl-1+Cy5 Bim peptide solution. The plate was centrifuged with a cover plate at 1000 rpm for 1 minute, then incubated for 60 minutes at room temperature with plates covered.
The TR-FRET signal was read on an BMG PHERAStar FSX MicroPlate Reader at room temperature using the HTRF optic module (HTRF: excitation: 337 nm, light source: laser, emission A: 665 nm, emission B: 620 nm, integration start: 60 μs, integration time: 400 μs).
The BMG PHERAStar FSX MicroPlate Reader was used to measure fluorescence intensity at two emission wavelengths—665 nm and 620 nm—and report relative fluorescence units (RFU) for both emissions, as well as a ratio of the emissions (665 nm/620 nm)*10,000. The RFU values were normalized to percent inhibition as follows:
% inhibition=(((NC−IC)−(compound−IC))/(NC−IC))*100
where IC (inhibitor control, low signal)=mean signal of 1×Tb-MCl-1+Cy5 Bim peptide+inhibitor control or 100% inhibition of Mcl-1; NC (neutral control, high signal)=mean signal 1×Tb-MCl-1+Cy5 Bim peptide with DMSO only or 0% inhibition
An 11-point dose response curve was generated to determine IC50 values (using GenData) based on the following equation:
Y=Bottom+(Top−Bottom)/(1+10^((log IC50−X)*HillSlope))
where Y=% inhibition in the presence of X inhibitor concentration; Top=100% inhibition derived from the IC (mean signal of Mcl-1+inhibitor control); Bottom=0% inhibition derived from the NC (mean signal of Mcl-1+DMSO); Hillslope=Hill coefficient; and IC50=concentration of compound with 50% inhibition in relation to top/neutral control (NC).
In this assay [L]=8 nM and Kd=10 nM
Representative compounds of the present invention were tested according to the procedure as described above, with results as listed in the Table below (n.d. means not determined).
A general note: In TR-FRET formats the signal depends on donor and acceptor labels being close together.

Test [2] has as its system MOLP-8 human multiple myeloma cell line. The test is described as follows: MOLP8 Caspase-Glo 3/7 apoptosis induction assay. Type of test: cell-based. To be noted: MOLP-8 cells, 2 hours at 37° C., 30 μM highest conc., averaged over all runs on all batches. From the text:
MCL-1 is a regulator of apoptosis and is highly over-expressed in tumor cells that escape cell death. The assay evaluates the cellular potency of small-molecule compounds targeting regulators of the apoptosis pathway, primarily MCL-1, Bfl-1, Bcl-2, and other proteins of the Bcl-2 family. Protein-protein inhibitors disrupting the interaction of anti-apoptotic regulators with BH3-domain proteins initiate apoptosis.
The Caspase-Glo® 3/7 Assay is a luminescent assay that measures caspase-3 and -7 activities in purified enzyme preparations or cultures of adherent or suspension cells. The assay provides a proluminescent caspase-3/7 substrate, which contains the tetrapeptide sequence DEVD. This substrate is cleaved to release aminoluciferin, a substrate of luciferase used in the production of light. Addition of the single Caspase-Glo® 3/7 Reagent in an “add-mix-measure” format results in cell lysis, followed by caspase cleavage of the substrate and generation of a “glow-type” luminescent signal.
This assay uses the MOLP-8 human multiple myeloma cell line, which is sensitive to MCL-1 inhibition.
Cell cultures were maintained between 0.2 and 2.0×10^6 cells/mL. The cells were harvested by collection in 50 mL conical tubes. The cells were then pelleted at 500 g for 5 mins before removing supernatant and resuspension in fresh pre-warmed culture medium. The cells were counted and diluted as needed.
The assay reagent was prepared by transferring the buffer solution to the substrate vial and mixing. The solution may be stored for up to 1 week at 4° C. with negligible loss of signal.
Compounds were delivered in assay-ready plates (Proxiplate) and stored at −20° C.
Assays always include 1 reference compound plate containing reference compounds. The plates were spotted with 40 nL of compounds (0.5% DMSO final in cells; serial dilution; 30 μM highest conc. 1/3 dilution, 10 doses, duplicates). The compounds were used at room temperature and 4 μL of pre-warmed media was added to all wells except column 2 and 23. The negative control was prepared by adding 1% DMSO in media. The positive control was prepared by adding the appropriate positive control compound in final concentration of 60 μM in media. The plate was prepared by adding 4 μL negative control to column 23, 4 μL positive control to column 2 and 4 μL cell suspension to all wells in the plate. The plate with cells was then incubated at 37° C. for 2 hours. The assay signal reagent is the Caspase-Glo solution described above, and 8 μL was added to all wells. The plates were then sealed and measured after 30 minutes.
The activity of a test compound was calculated as percent change in apoptosis induction as follows:
[formula] [formula] % Effect (AC50)=100−((sample−LC)/(HC−LC))*100
% Control=(sample/HC)*100
% Control min=(sample−LC)/(HC−LC)*100

The Ki is a dissociation constant, usually derived from enzyme kinetics or from competition with a known ligand. One may read the AC50 as the concentration giving half of the maximal activity seen. Lower therefore signals activity at low concentration.

Myeloid Cell Leukemia 1 (Mcl-1), sequence (Q07820 whole entry, the tested form may be a part): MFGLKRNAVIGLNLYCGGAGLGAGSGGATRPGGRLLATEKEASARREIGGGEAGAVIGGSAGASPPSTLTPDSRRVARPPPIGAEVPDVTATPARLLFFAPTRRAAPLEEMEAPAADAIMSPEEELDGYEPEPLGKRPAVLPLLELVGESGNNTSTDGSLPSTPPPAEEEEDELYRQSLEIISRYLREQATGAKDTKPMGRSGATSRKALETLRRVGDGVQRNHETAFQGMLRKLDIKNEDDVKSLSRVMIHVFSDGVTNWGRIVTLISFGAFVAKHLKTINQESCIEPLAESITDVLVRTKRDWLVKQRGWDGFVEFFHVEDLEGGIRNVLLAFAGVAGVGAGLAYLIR

Take `Cc1nn(C)c2c1CSCc1cc(n(C)n1)CSc1cc(c3ccccc3c1)OCCCc1c(C(=O)O)n(C)c3c-2c(Cl)ccc13` (single isomer, unassigned) [Compound 2]: the Ki in test [1] worked out at 0.039 nM. This compound also registered an AC50 in test [2] of 54 nM.

Turning to `Cc1nn(C)c2c1CSCc1cc(n(C)n1)CCc1cc(c3ccccc3c1)OCCCc1c(C(=O)O)n(C)c3c-2c(Cl)ccc13` (single isomer, unassigned) [Compound 11a], in test [1], the Ki was determined as 3.68 nM. For the same compound, the AC50 in test [2] was determined as 2380 nM.

`Cn1nc2cc1CCc1cc(c3ccc(F)cc3c1)OCCCc1c(C(=O)O)[nH]c3c(c(Cl)ccc13)-c1c(cnn1C)CSC2` (single isomer, unassigned) [Compound 25]: in test [1], the Ki is 0.807 nM. The AC50 in test [2] is 4130 nM.

Turning to `COCCOCc1nn(C)c2c1CSCc1cc(n(C)n1)CCc1cc(c3ccc(F)c(F)c3c1)OCCCc1c(C(=O)O)n(C)c3c-2c(Cl)ccc13` (single isomer, unassigned) [Compound 15], the Ki in test [1] was 2.58 nM. The activity in test [2] was half-maximal at 1400 nM (AC50).

Regarding `COCCOCCn1c(C(=O)O)c2c3ccc(Cl)c(c31)-c1c(cnn1C)CSCc1cc(n(C)n1)CCc1cc(c3ccc(F)cc3c1)OCCC2` (single isomer, unassigned) [Compound 20], the Ki in test [1] came out at 200 nM. The same compound displayed an AC50 in test [2] of 30000 nM.

Turning to `COCCOCCc1nn(C)c2c1CSCc1cc(n(C)n1)CCc1cc(c3ccc(F)cc3c1)OCCCc1c(C(=O)O)n(C)c3c-2c(Cl)ccc13` (single isomer, unassigned) [Compound 18], the Ki in test [1] turned out to be 2.1 nM. The same compound yielded an AC50 in test [2] of 2430 nM.

Take `Cn1nc2cc1CCc1cc(c3ccc(F)cc3c1)OCCCc1c(C(=O)O)n(CCN3CCOCC3)c3c(c(Cl)ccc13)-c1c(cnn1C)CSC2` (single isomer, unassigned) [Compound 19]: in test [1], the Ki came to 50.1 nM. In test [2], the half-maximal activity concentration (AC50) turned out to be 29500 nM.

For the compound `CCn1c(C(=O)O)c2c3ccc(Cl)c(c31)-c1c(cnn1C)CCCc1cc(n(C)n1)CCc1cc(c3ccc(F)cc3c1)OCCC2` (single isomer, unassigned) [Compound 13], the Ki in test [1] was determined as 0.051 nM. Half-maximal activity in test [2] (AC50) was put at 22 nM.

As for `COCCn1c(C(=O)O)c2c3ccc(Cl)c(c31)-c1c(cnn1C)CSCc1cc(n(C)n1)CCc1cc(c3ccc(F)cc3c1)OCCC2` (single isomer, unassigned) [Compound 24], the Ki in test [1] was determined as 2.15 nM. The compound further returned an AC50 in test [2] of 2530 nM.

Take `Cc1nn(C)c2c1CSCc1cc(n(C)n1)CCc1cc(c3ccc(F)cc3c1)OCCCc1c(C(=O)O)n(C)c3c-2c(Cl)ccc13` (single isomer, unassigned) [Compound 9]: the Ki in test [1] was 18.7 nM. The compound also yielded an AC50 in test [2] of 8960 nM.

Take `Cn1nc2cc1CCc1cc(c3ccc(F)cc3c1)OCCCc1c(C(=O)O)[nH]c3c(c(Cl)ccc13)-c1c(cnn1C)CSC2` (single isomer, unassigned) [Compound 26]: the inhibition constant Ki in test [1] is 0.045 nM. Half-maximal activity in test [2] (AC50) was put at 235 nM.

Turning to `CN(C)CCn1c(C(=O)O)c2c3ccc(Cl)c(c31)-c1c(cnn1C)CSCc1cc(n(C)n1)CCc1cc(c3ccc(F)cc3c1)OCCC2` (single isomer, unassigned) [Compound 27], the Ki in test [1] came to 0.031 nM. The same compound gave an AC50 in test [2] (Homo sapiens, MOLP-8, 2 h) of 117 nM.

With `Cc1nn(C)c2c1CSCc1cc(n(C)n1)CSc1cc(c3ccccc3c1)OCCCc1c(C(=O)O)n(C)c3c-2c(Cl)ccc13` (single isomer, unassigned) [Compound 1], the Ki in test [1] was found to be 0.746 nM. The same compound gave a concentration at half-maximal activity (AC50) in test [2] of 1220 nM.

Turning to `COCCOCc1nn(C)c2c1CSCc1cc(n(C)n1)CCc1cc(c3ccc(F)c(F)c3c1)OCCCc1c(C(=O)O)n(C)c3c-2c(Cl)ccc13` (single isomer, unassigned) [Compound 16], the inhibition constant (Ki) in test [1] amounted to 0.021 nM. For the same compound, the activity in test [2] was half-maximal at 13 nM (AC50).

With `COCCOCc1nn(C)c2c1CSCc1cc(n(C)n1)CCc1cc(c3ccccc3c1)OCCCc1c(C(=O)O)n(C)c3c-2c(Cl)ccc13` (single isomer, unassigned) [Compound 3], the Ki in test [1] amounted to 98.2 nM. Besides, in test [2], the half-maximal activity concentration (AC50) was > 30000 nM.

For `Cc1nn(C)c2c1CSCc1cc(n(C)n1)CCc1cc(c3ccccc3c1)OCCCc1c(C(=O)O)n(C)c3c-2c(Cl)ccc13` (single isomer, unassigned) [Compound 11], the Ki in test [1] stood at 3.02 nM. In test [2], this compound returned a half-maximal activity concentration (AC50) of 1620 nM.

In the case of `Cn1nc2cc1CSc1cc(c3ccccc3c1)OCCCc1c(C(=O)O)n(C)c3c(c(Cl)ccc13)-c1c(cnn1C)CSC2` (single isomer, unassigned) [Compound 6], in test [1], the Ki was 0.062 nM. The same compound had an AC50 in test [2] (Homo sapiens, MOLP-8, 2 h) of 58 nM.

For the compound `COCCOCc1nn(C)c2c1CSCc1cc(n(C)n1)CCc1cc(c3ccc(F)cc3c1)OCCCc1c(C(=O)O)n(C)c3c-2c(Cl)ccc13` (single isomer, unassigned) [Compound 7], the Ki in test [1] amounted to 52.3 nM. Also, in test [2], half-maximal activity (AC50) was put at 20400 nM.

For `COCCn1c(C(=O)O)c2c3ccc(Cl)c(c31)-c1c(cnn1C)CSCc1cc(n(C)n1)CCc1cc(c3ccc(F)cc3c1)OCCC2` (single isomer, unassigned) [Compound 23], the Ki in test [1] was 0.024 nM. The concentration at half-maximal activity (AC50) in test [2] came to 27 nM.

As to `Cc1nn(C)c2c1CSCc1cc(n(C)n1)CCc1cc(c3ccc(F)cc3c1)OCCCc1c(C(=O)O)n(C)c3c-2c(Cl)ccc13` (single isomer, unassigned) [Compound 10], in test [1], the Ki came to 0.307 nM. In test [2], this compound had an AC50 of 10 nM.

Take `COCCOCc1nn(C)c2c1CSCc1cc(n(C)n1)CCc1cc(c3ccc(F)cc3c1)OCCCc1c(C(=O)O)n(C)c3c-2c(Cl)ccc13` (single isomer, unassigned) [Compound 8]: the Ki in test [1] worked out at 0.025 nM. In test [2], this compound showed an AC50 of 15 nM.

Consider `COCCOCCc1nn(C)c2c1CSCc1cc(n(C)n1)CCc1cc(c3ccc(F)cc3c1)OCCCc1c(C(=O)O)n(C)c3c-2c(Cl)ccc13` (single isomer, unassigned) [Compound 17], for which the Ki in test [1] is 0.011 nM. The compound also gave an AC50 in test [2] of 15 nM.

(Values after patent US20230265105A1, “MACROCYCLIC 7-PYRAZOL-5-YL-INDOLE DERIVATIVES AS INHIBITORS OF MCL-1” (Janssen Pharmaceutica NV, priority 2020, published 2023).)
